Data published in patent US12624044B2, “SMARCA degraders and uses thereof” (Kymera Therapeutics, Inc., priority 2019, dated 2026).

Key:
Assay type in all cases: cell-based
[1] = biological target: T1, SMARCA2 (Homo sapiens, UniProt P51531); experiment: SMARCA2 Western blot MV4-11 degradation; settings: for Dmax: MV4-11, MV4-11 cells, read-out: SMARCA2 WB MV411 degradation 24 h: Average Dmax %; for Dmax / DC50: 24 h; for DC50 / SMARCA2 WB MV411 degradation 24 h: Average Dmax %: MV4-11 cells; for DC50: read-out: SMARCA2 WB MV411 degradation 24 h: Average external-Abs DC50
Experimental: Cells were seeded into 6-well plates (MV4-11: 4×10^6 cells/well/1 ml) and 1 ml of 2× compound solution was added into the well to make the final concentration and the plates were mixed well and incubated for 24 hours (No cytotoxicity was observed). The cell were collected with media and spun at 3000 rpm for 5 minutes. The supernatant was aspirated and the well and the cells were washed with cold PBS once and combined for centrifugation again; the supernatant aspirated again. 200 ul pre-chilled RIPAlysis buffer (Boston BioProducts BP-115D) with protease/phosphatase inhibitor (Roche 05892791001/Roche 04906837001) was directly added into the tube to lyze the cells for 20 minutes on ice. The cell lysate were collected into EP tubes and spun at 13000 rpm for 20 minutes and 72 ul supernatant was transferred to a fresh EP tube containing 18 ul of 5× loading buffer (Beyotime Bio P0015) to make the loading samples. The samples were heated to 100° C. for 10 minutes and cooled to RT and microcentrifuged. 20 ul of samples were loaded onto SDS-PAGE gel (Novex, WG1402BOX) and the gel was run at 80 V for 20 minutes and 120 V for 1.5 hours. The samples were electrotransfer to a NC membrane using wet-transfer method with 250 mA for 2.5 hours. The membrane was blocked with LICOR blocking buffer (LI-COR, 927-50000) for 1 hour. The membrane was washed three times with TBST (CST #9997S), 5 minutes each. Incubation was performed with primary antibody prepared in blocking buffer with 0.1% Tween-20 (Solarbio, P8220) at 4° C. overnight (Anti-SMARCA2/BRM antibody (ab15597) 1:500; Anti-BRG1 antibody [EPR3912] (ab108318) 1:1000; Rabbit anti-Baf180 antibody [EPR15860] (Abcam, ab196022) 1:1000; mouse anti-beta-Actin (8H10D10) (CST #3700) 1:10000). The membrane was washed three times with TBST, 5 minutes each. Incubation with secondary antibody was performed for 1 hour at RT (anti-rabbit IgG (Licor, 926-32211) 1:5000; anti-mouse IgG (LI-COR, 926-68070) 1:5000). The membrane was washed three times with TBST, 5 minutes each and lastly the LiCOR was read.
The letter codes for the percentage of SMARCA degradation after 24 hours (Dmax %) include: A (>90% degradation), B (>70-90% degradation), C (50-70% degradation), and D (<50% degradation).

[2] = biological target: T2, SMARCA4 (Homo sapiens, UniProt P51532); experiment: SMARCA4 Western blot MV4-11 degradation; settings: for Dmax: MV4-11, MV4-11 cells, read-out: SMARCA4 WB MV411 degradation 24 h: Average Dmax %; for Dmax / DC50: 24 h; for DC50 / SMARCA4 WB MV411 degradation 24 h: Average Dmax %: MV4-11 cells; for DC50: read-out: SMARCA4 WB MV411 degradation 24 h: Average external-Abs DC50
T2 construct: SMARCA2 and SMARCA4 protein degradation in MV4-11 cells; endogenous in cells; host or cells: MV4-11
Procedure, shortened: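 MV4-11 cells treated with compound for 24 h, lysed in RIPA with protease/phosphatase inhibitors, and SMARCA2 and SMARCA4 (BRG1) levels assessed by Western blot with β-actin loading control and LI-COR fluorescent read-out. Maximal degradation (Dmax %) after 24 h binned into letter codes.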

[3] = biological target: T1, SMARCA2; experiment: MSD SMARCA2 degradation in A549 cell line; settings: for Dmax: A549, A549 cells; for Dmax / DC50: 24 h; for DC50 / SMARCA2 MSD A549 degradation 24 h: Average Dmax %: A549 cells; for DC50: read-out: SMARCA2 MSD A549 degradation 24 h: Average external-Abs DC50
Procedure, shortened: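 SMARCA2 remaining was measured by MSD electrochemiluminescence on RIPA lysates (anti-SMARCA2 plus SULFO-TAG anti-rabbit). Prior exposure: 24 h of A549 cells to a 10-point, 3-fold dilution series topping at 1000 nM final; Dmax % given as graded codes.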

T2 sequence (P51532 whole entry): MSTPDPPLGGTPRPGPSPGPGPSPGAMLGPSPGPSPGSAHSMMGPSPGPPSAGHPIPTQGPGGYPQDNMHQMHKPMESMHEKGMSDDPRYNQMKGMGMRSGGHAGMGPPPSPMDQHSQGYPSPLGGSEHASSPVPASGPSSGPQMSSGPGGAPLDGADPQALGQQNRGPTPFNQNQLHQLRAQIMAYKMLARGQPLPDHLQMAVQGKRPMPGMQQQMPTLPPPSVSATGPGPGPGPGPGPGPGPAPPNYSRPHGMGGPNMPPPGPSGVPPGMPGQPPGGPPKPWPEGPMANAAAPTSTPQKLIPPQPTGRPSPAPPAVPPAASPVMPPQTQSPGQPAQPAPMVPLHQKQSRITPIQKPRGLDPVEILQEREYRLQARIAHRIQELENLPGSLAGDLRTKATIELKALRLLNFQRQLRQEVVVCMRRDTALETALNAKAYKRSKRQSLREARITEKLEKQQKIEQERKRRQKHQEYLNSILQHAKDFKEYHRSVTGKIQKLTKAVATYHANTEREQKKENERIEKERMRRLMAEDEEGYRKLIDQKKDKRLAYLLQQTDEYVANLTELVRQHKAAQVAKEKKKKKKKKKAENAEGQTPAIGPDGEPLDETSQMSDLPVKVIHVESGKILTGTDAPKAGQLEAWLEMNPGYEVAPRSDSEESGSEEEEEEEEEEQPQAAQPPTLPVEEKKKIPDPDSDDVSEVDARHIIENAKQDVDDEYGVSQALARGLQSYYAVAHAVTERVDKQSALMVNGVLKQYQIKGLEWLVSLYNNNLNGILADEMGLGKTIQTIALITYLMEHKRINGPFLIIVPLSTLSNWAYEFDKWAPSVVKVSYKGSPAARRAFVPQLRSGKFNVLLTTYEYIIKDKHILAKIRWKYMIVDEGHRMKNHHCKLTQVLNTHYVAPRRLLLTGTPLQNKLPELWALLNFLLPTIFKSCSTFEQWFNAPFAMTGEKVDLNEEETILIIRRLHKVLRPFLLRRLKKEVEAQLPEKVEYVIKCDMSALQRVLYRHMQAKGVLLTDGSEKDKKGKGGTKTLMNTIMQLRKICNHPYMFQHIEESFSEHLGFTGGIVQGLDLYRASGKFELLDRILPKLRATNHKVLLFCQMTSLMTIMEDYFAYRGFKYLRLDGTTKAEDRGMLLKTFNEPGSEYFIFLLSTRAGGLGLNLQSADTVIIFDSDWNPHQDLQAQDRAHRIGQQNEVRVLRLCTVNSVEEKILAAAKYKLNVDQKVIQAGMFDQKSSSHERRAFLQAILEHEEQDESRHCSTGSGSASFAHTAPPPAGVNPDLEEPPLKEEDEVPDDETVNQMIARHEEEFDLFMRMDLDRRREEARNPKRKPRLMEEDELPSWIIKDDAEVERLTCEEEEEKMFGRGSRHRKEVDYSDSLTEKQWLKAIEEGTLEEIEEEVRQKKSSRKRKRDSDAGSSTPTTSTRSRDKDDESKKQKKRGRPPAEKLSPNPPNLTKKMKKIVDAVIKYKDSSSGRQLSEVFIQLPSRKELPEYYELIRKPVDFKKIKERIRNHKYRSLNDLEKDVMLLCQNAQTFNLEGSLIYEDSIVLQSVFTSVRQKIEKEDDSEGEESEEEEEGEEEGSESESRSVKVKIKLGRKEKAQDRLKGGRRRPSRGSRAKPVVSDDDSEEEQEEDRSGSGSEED
T1 sequence (P51531 whole entry): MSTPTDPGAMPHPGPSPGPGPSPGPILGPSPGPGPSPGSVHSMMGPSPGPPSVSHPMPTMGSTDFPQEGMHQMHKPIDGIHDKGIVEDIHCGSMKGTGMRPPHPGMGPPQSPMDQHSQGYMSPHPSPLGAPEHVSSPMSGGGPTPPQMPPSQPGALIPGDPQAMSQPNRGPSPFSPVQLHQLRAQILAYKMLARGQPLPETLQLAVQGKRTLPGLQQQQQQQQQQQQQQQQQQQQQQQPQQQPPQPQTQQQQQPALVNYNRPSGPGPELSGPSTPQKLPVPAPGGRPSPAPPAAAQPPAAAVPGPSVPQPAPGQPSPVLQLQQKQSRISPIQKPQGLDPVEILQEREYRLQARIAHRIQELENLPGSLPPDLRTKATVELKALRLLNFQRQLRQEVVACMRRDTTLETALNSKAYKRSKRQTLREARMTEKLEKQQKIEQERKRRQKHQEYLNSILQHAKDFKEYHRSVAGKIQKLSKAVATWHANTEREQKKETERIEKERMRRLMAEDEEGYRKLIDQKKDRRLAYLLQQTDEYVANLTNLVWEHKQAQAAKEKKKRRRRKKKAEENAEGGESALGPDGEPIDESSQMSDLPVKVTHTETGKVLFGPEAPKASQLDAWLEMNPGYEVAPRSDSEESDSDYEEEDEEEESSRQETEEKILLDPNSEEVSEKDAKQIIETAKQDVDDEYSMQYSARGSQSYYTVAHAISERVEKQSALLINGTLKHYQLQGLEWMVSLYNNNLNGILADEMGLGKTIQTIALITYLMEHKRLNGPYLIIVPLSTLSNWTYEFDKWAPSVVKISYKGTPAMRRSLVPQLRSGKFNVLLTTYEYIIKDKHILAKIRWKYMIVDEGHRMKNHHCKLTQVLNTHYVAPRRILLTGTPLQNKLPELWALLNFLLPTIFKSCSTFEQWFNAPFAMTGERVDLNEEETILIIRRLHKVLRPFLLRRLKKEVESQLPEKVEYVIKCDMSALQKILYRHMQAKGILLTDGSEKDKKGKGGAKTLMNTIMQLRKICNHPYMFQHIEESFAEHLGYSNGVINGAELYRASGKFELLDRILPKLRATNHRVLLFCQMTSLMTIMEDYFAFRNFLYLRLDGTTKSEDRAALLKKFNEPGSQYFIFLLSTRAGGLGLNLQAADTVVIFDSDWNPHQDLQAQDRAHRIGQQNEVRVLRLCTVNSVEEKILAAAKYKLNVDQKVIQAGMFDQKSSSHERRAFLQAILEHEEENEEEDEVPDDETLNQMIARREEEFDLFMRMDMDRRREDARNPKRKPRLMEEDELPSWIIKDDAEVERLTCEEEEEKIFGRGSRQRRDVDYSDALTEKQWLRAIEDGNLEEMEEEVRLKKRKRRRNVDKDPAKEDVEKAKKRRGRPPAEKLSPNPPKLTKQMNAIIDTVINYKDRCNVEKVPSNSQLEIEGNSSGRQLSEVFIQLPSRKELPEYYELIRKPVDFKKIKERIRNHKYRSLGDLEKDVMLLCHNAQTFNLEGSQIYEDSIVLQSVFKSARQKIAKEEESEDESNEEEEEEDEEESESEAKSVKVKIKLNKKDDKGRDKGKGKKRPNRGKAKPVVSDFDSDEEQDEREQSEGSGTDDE

Row | Structure (SMILES) | Dmax [1] | DC50 [1] | Dmax [2] | DC50 [2] | Dmax [3] | DC50 [3] | SMARCA2 WB MV411 degradation 24 h: Average Dmax % [1] | SMARCA4 WB MV411 degradation 24 h: Average Dmax % [2] | SMARCA2 MSD A549 degradation 24 h: Average Dmax % [3]
1 | Cc1ncsc1-c1ccc(CNC(=O)[C@@H]2C[C@@H](O)CN2C(=O)[C@@H](NC(=O)[C@H]2CC[C@H](CCN3CCC(n4cc(-c5cc(-c6ccccc6O)nnc5N)cn4)CC3)CC2)C(C)(C)C)cc1 [I-399] | > 90% | < 100 nM | 50 to 70% | 100 to 500 nM | > 90% | < 100 nM | – | – | –
2 | Cc1ncsc1-c1ccc(CNC(=O)[C@@H]2C[C@@H](O)CN2C(=O)[C@@H](NC(=O)[C@H]2CC[C@H](CCCN3CCC(n4cc(-c5cc(-c6ccccc6O)nnc5N)cn4)CC3)CC2)C(C)(C)C)cc1 [I-401] | > 90% | < 100 nM | 70 to 90% | 100 to 500 nM | > 90% | 100 to 500 nM | – | – | –
3 | Cc1ncsc1-c1ccc(CNC(=O)[C@@H]2C[C@@H](O)CN2C(=O)[C@@H](NC(=O)[C@H]2CC[C@H](c3cnc(N4C5CCC4CN(c4cc(-c6ccccc6O)nnc4N)C5)nc3)CC2)C(C)(C)C)c(C(F)(F)F)c1 [I-404] | > 90% | < 100 nM | 70 to 90% | 100 to 500 nM | > 90% | 100 to 500 nM | – | – | –
4 | Cc1ncsc1-c1ccc(CNC(=O)[C@@H]2C[C@@H](O)CN2C(=O)[C@@H](NC(=O)[C@H]2CC[C@H](c3cnc(N4C5CCC4CN(c4cc(-c6ccccc6O)nnc4N)C5)nc3)CC2)C(C)(C)C)c(OC(F)(F)F)c1 [I-405] | > 90% | < 100 nM | > 90% | 100 to 500 nM | > 90% | < 100 nM | – | – | –
5 | Cc1ncsc1-c1ccc(CNC(=O)[C@@H]2C[C@@H](O)CN2C(=O)[C@@H](NC(=O)[C@@H]2CC=C(c3cnc(N4C5CCC4CN(c4cc(-c6ccccc6O)nnc4N)C5)nc3)CC2)C(C)(C)C)cc1 [I-406] | > 90% | < 100 nM | 70 to 90% | < 100 nM | > 90% | < 100 nM | – | – | –
6 | Cc1ncsc1-c1ccc(CNC(=O)[C@@H]2C[C@@H](O)CN2C(=O)[C@@H](NC(=O)[C@H]2CC=C(c3cnc(N4C5CCC4CN(c4cc(-c6ccccc6O)nnc4N)C5)nc3)CC2)C(C)(C)C)cc1 [I-407] | > 90% | < 100 nM | > 90% | < 100 nM | > 90% | 100 to 500 nM | – | – | –
7 | CC(=O)O[C@@H]1C[C@@H](C(=O)NCc2ccc(-c3scnc3C)cc2)N(C(=O)[C@@H](NC(=O)[C@H]2CC[C@H](c3cnc(N4C5CCC4CN(c4cc(-c6ccccc6O)nnc4N)C5)nc3)CC2)C(C)(C)C)C1 [I-408] | > 90% | < 100 nM | > 90% | < 100 nM | > 90% | < 100 nM | – | – | –
8 | Cc1ncsc1-c1ccc(CNC(=O)[C@@H]2C[C@@H](OC(=O)[C@H](C)N)CN2C(=O)[C@@H](NC(=O)[C@H]2CC[C@H](c3cnc(N4C5CCC4CN(c4cc(-c6ccccc6O)nnc4N)C5)nc3)CC2)C(C)(C)C)cc1 [I-409] | > 90% | < 100 nM | > 90% | < 100 nM | > 90% | < 100 nM | – | – | –
9 | Cc1ncsc1-c1ccc(CNC(=O)[C@@H]2C[C@@H](O)CN2C(=O)[C@@H](NC(=O)C2CCC(c3cnc(N4C5CCC4CN(c4cc(-c6ccccc6O)nnc4N)C5)nc3)CC2C)C(C)(C)C)cc1 (some centres unmarked) [I-411] | > 90% | < 100 nM | > 90% | < 100 nM | 50 to 70% | 501 to 1000 nM | – | – | –
10 | Cc1ncsc1-c1ccc(CNC(=O)[C@@H]2C[C@@H](O)CN2C(=O)[C@@H](NC(=O)[C@H]2CC[C@H](c3cnc(N4C5CCC4CN(c4cc(-c6ccccc6O)nnc4N)C5)nc3C)CC2)C(C)(C)C)cc1 [I-412] | > 90% | < 100 nM | > 90% | < 100 nM | > 90% | < 100 nM | – | – | –
11 | Cc1ncsc1-c1ccc(CNC(=O)[C@@H]2C[C@@H](O)CN2C(=O)[C@@H](NC(=O)[C@H]2CC3(C2)C[C@H](c2cnc(N4C5CCC4CN(c4cc(-c6ccccc6O)nnc4N)C5)nc2)C3)C(C)(C)C)c(C(F)(F)F)c1 (some centres unmarked) [I-419] | > 90% | < 100 nM | 70 to 90% | 100 to 500 nM | > 90% | 100 to 500 nM | – | – | –
12 | Cc1ncsc1-c1ccc(CNC(=O)[C@@H]2C[C@@H](O)CN2C(=O)[C@@H](NC(=O)[C@H]2C[C@]3(C2)C[C@H](c2cnc(N4C5CCC4CN(c4cc(-c6ccccc6O)nnc4N)C5)nc2)C3)C(C)(C)C)c(C(F)(F)F)c1 (some centres unmarked) [I-420] | – | < 100 nM | – | 100 to 500 nM | – | 100 to 500 nM | B (B (>70-90% degradation)) | D (D (<50% degradation)) | A (A (>90% degradation))
13 | Cc1ncsc1-c1ccc(CNC(=O)[C@@H]2C[C@@H](O)CN2C(=O)[C@@H](NC(=O)[C@H]2CC3(C2)C[C@H](N2CCC(c4cnc(N5C6CCC5CN(c5cc(-c7ccccc7O)nnc5N)C6)nc4)CC2)C3)C(C)(C)C)cc1 (some centres unmarked) [I-423] | > 90% | < 100 nM | 50 to 70% | 100 to 500 nM | > 90% | < 100 nM | – | – | –
14 | Cc1ncsc1-c1ccc(CNC(=O)[C@@H]2C[C@@H](O)CN2C(=O)[C@@H](NC(=O)[C@H]2CC3(C2)C[C@H](N2CCC(c4cnc(N5C6CCC5CN(c5cc(-c7ccccc7O)nnc5N)C6)nc4)CC2)C3)C(C)(C)C)cc1 (some centres unmarked) [I-424] | – | < 100 nM | – | > 1000 nM | – | < 100 nM | A (A (>90% degradation)) | D (D (<50% degradation)) | A (A (>90% degradation))
15 | Cc1ncsc1-c1ccc(CNC(=O)[C@@H]2C[C@@H](O)CN2C(=O)[C@@H](NC(=O)C23CCC(CN4CCC(c5cnc(N6C7CCC6CN(c6cc(-c8ccccc8O)nnc6N)C7)nc5)CC4)(CC2)CC3)C(C)(C)C)cc1 [I-425] | > 90% | < 100 nM | 70 to 90% | 100 to 500 nM | > 90% | < 100 nM | – | – | –
16 | Cc1ncsc1-c1ccc(CNC(=O)[C@@H]2C[C@@H](O)CN2C(=O)[C@@H](NC(=O)[C@H]2C[C@]3(C[C@H](CN4CCC(c5cnc(N6C7CCC6CN(c6cc(-c8ccccc8O)nnc6N)C7)nc5)CC4)C3)C2)C(C)(C)C)cc1 (some centres unmarked) [I-427] | > 90% | < 100 nM | < 50% | 100 to 500 nM | – | < 100 nM | – | – | –
